Measured values reported in patent publication US20230339835A1, “2,3,5-TRIMETHYL-6-NONYLCYCLOHEXA-2,5-DIENE-1,4-DIONE FOR SUPPRESSING AND TREATING ALPHA-SYNUCLEINOPATHIES, TAUOPATHIES, AND OTHER DISORDERS” (PTC THERAPEUTICS, INC., priority 2018, published 2023).

Assay: Light sensitivity of C9 solutions
Assay type: physicochemical
Settings: room light wavelengths <450 nm
From the text: The compounds of this invention can be prepared from readily available starting materials using general methods and procedures that will be apparent to one skilled in the art in view of the disclosure provided herein. It will be appreciated that where typical or preferred process conditions (i.e., reaction temperatures, times, mole ratios of reactants, solvents, pressures, etc.) are given, other process conditions can also be used unless otherwise stated. Optimum reaction conditions may vary with the particular reactants or solvent used, but such conditions can be determined by one skilled in the art by routine optimization procedures. […] If amber lighting is not available, then appropriate controls should be used to minimize solutions to light exposure e.g. aluminum foil wrapping, amber glassware
Test solutions on 1 g scale determined that 75-85% IPA/water gave good solubility (˜10:1 vol:wt), fine crystals that were filterable and solutions that could be heated and cooled to produce a predictable melt/crystallization. […] A hot filtration was required as a brown, material formed during crystallization when the solution was left exposed to room light for >1 h. This was only observed with the solution was exposed to light. Recovery was 92.7% of fine needles and UHPLC analysis of the supernatant was 91% a/a vs 99% for the solid indicating the supernatant was removing impurities. […]

light sensitivity of solutions: light sensitive
Compound: CCCCCCCCCC1=C(C)C(=O)C(C)=C(C)C1=O [Compound C9, 2,3,5-trimethyl-6-nonylcyclohexa-2,5-diene-1,4-dione]
